The assay has as its system HCT116 cells, hepatic metastasis. Description: hepatic metastasis model (intrasplenic HCT116). The format is in vivo, NSG mice. Conditions: i.p. every other day. On the procedure:
(B) HCT116 cells were transfected with control KD or RXR-gamma-KD1 siRNA on day 0. […] The mRNA expression of TIMP2 and TIMP3 was analyzed by qRT-PCR on day 5. Data are shown as relative mRNA fold change of SPIR-treated RXR-gamma-KD1 cells to control KD cells (n=3). (C) HCT116 cells were transfected with control KD or RXR-gamma-KD1 siRNA on day 0. […] Data are calculated as the percentage change in distance of migration relative to that of DMSO-treated cells (n=3). (D) HCT116 cells were transfected with control KD, RXR-gamma-KD1, TIMP2-KD or TIMP3-KD siRNA on day 0. […] The number of cells that invaded the ECM was determined after 36 h. Data are expressed as percentage change in tumor invasion relative to that of DMSO-treated cells (n=3). (E) HCT116 cells were transfected with control-KD, TIMP2-KD or TIMP3-KD siRNA on day 0. […] Hepatic metastasis was analyzed by performing bioluminescence imaging on day 10.* P<0.05, ** P<0.005, *** P<0.0001.
Luciferase-expressing HCT116 and HT29 cells were generated by lentiviral transduction of the cells with a CMV promoter-driven luciferase expression construct engineered from the pLL3.7 vector. […] Bioluminescence imaging was performed in a Xenogen imaging system to monitor tumor growth and the data were analyzed using Living Image software (Caliper LifeSciences). […]

The source of these data is US10286000B2, “Retinoid X receptor-gamma agonists and retinoid X receptor-alpha antagonists for treatment of cancer” (St. Jude Children's Research Hospital, Inc., priority 2013, dated 2019).

Take `CC(=O)S[C@@H]1CC2=CC(=O)CC[C@]2(C)[C@H]2CC[C@@]3(C)[C@@H](CC[C@@]34CCC(=O)O4)[C@H]12` [SPIR, spironolactone]: the hepatic tumor metastasis result was “significantly suppresses tumor metastasis”.
